According to PMC8326471, “Synthesis and biological evaluation of new pyrazolebenzene-sulphonamides as potential anticancer agents and hCA I and II inhibitors” (Turkish Journal of Chemistry, 2021):

Tests used:
[1] = Cytotoxicity assay (MTT), HGF normal cells; type: cell-based; conditions: human, HGF gingival fibroblasts (normal oral cells), non-tumor cells
Procedure: (§1) The cytotoxicity of the compounds 4a - 4j were assayed towards human tumor cell lines [gingival carcinoma (Ca9–22), oral squamous cell carcinoma (HSC-2)] and human normal oral cells [gingival fibroblasts (HGF), and periodontal ligament fibroblasts (HPLF)] as described [42, 54 – 56]. In brief, all cells were cultured in Dulbecco’s modified eagle’s medium (DMEM) supplemented with 10% fetal bovine serum (FBS). The following concentrations of the compounds in dimethylsulfoxide (DMSO) were added to the medium and incubated at 37 ° C for 48 h: 4a - 4j ([…]), melphalan (3.12, 6.25, 12.5, 25. 50, 100, 200 and […]) and 5-FU ([…]). The media that contained the same concentration of DMSO ([…], 0.03125, 0.0625, 0.125, 0.25, 0.5 or 1%) were used as controls since DMSO above 0.25% is cytotoxic. The viable cell numbers were determined by the 3-(4,5-dimethylthiazol-2-yl)-2,5-diphenyltetrazolium bromide (MTT) assay. The CC50 values were determined from dose-response curves.
(§2) Cytotoxicity’s of the compounds 4a - 4j were evaluated towards Ca9–22, HSC-2, HSC-3, and HSC-4 human oral squamous cell carcinoma cell lines as tumor cell lines and HGF, HPLF, and HPC human normal oral cells as nontumor cells (Table 1) according to the procedure in the literature [42, 54 – 56]. 5-Fluorouracil (5-FU) was used as a reference anticancer drug.

hCA I = hCA I (Homo sapiens, UniProt P00915); assay: Carbonic anhydrase enzyme assay (esterase activity), hCA I; type: biochemical; conditions: for Ki: Lineweaver-Burk plot; for IC50: esterase activity, p-nitrophenyl acetate
From the text: (§3) Human CA isoforms (hCAI and hCAII) were purified by the sepharose - 4B – L - tyrosine sulfanilamide affinity segregation method as reported. […] Inhibitory effects of the compounds were investigated by measuring the esterase activity according to Verpoorte et al. as described in previous studies [61 – 63].
(§4) Vmax, maximal velocity; VImax, maximal velocity of inhibitor; I, inhibitor; Ki, the inhibitor constant.

[2] = Cytotoxicity assay (MTT), HPLF normal cells; type: cell-based; conditions: human, HPLF periodontal ligament fibroblasts (normal oral cells), non-tumor cells
Procedure: as §1, §2

[3] = test system: HSC-4 oral squamous cell carcinoma cells; assay: Cytotoxicity assay (MTT), HSC-4; type: cell-based; conditions: Homo sapiens, tumor cell line, 48 h
Procedure: as §1, §2

[4] = test system: HSC-3 oral squamous cell carcinoma cells; assay: Cytotoxicity assay (MTT), HSC-3; type: cell-based; conditions: Homo sapiens, tumor cell line, 48 h
Procedure: as §1, §2

[5] = test system: gingival carcinoma (Ca9-22) cells; assay: Cytotoxicity assay (MTT), Ca9-22; type: cell-based, human; conditions: for CC50: Homo sapiens, Ca9-22, tumor cell line, 48 h, MTT; for times of potency compared to 5-FU, Ca9-22: cytotoxicity relative to 5-FU; for PSE2 times more potent than 5-FU: PSE2 relative to reference drug 5-FU
Procedure: as §1, §2

[6] = test system: human oral squamous cell carcinoma cell lines (Ca9-22, HSC-2, HSC-3, HSC-4); assay: Cytotoxicity assay, all tumor cell lines (mean, TS1, PSE1); type: cell-based; conditions: mean of Ca9-22, HSC-2, HSC-3, HSC-4, read-out: Tumor cell lines CC50 mean (B)
Procedure: as §1, §2
The tumor selectivity (TS1 and TS2) of each compound was calculated as described in previously reported literature procedures and these figures are presented in Table 1. Based on the TS1 values, 4f and 4g which have 2,5 and 2,4-dimethoxy substituents had the highest TS1 values in a series with 22.4 and 22.2, respectively. On the other hand, the 3,4,5-trimethoxy substituted compound 4i (TS1: 19.6) had the […] TS1 value. […] As expected, they were in accordance with the literature findings [16 – 18]. The second calculation (TS2) considered the differences of sensitivity between the malignant (Ca9–22) and non-malignant (HGF) cells derived from the same tissue (gingiva). According to TS2 values obtained, 4i (3,4,5-trimethoxy) had the highest TS2 value of 43.
The desired properties for a lead compound are being both markedly cytotoxic and selectively toxic for tumors. PSE1 reflects general cytotoxicity and selectivity potency of the compound towards all cells used, whereas PSE2 seems more specified since it was considered for the same origin cells. When the compounds tested towards OSCC lines were considered in terms of PSE2 values of the compounds. The best poly-methoxylated compounds were 4i (with 3,4,5-trimethoxy, PSE2 = 461.5) ˃ 4f (with 2,5-dimethoxy, PSE2 = 425.1) ˃ 4g (with 2,4-dimethoxy, PSE2 = 405.4) while the best mono-methoxylated derivative was 4b (with 4-methoxy, PSE2 = 205).

[7] = Cytotoxicity assay, all non-tumor cells (mean); type: cell-based; conditions: human, normal oral cells HGF, HPLF and HPC (mean of the three), read-out: Non-tumor cell lines CC50 mean (D)
Procedure: as §1, §2

[8] = Cytotoxicity assay (MTT), HPC normal cells; type: cell-based; conditions: human, HPC normal oral cells, non-tumor cells
Procedure: as §1, §2

[9] = test system: oral squamous cell carcinoma (HSC-2) cells; assay: Cytotoxicity assay (MTT), HSC-2; type: cell-based, human; conditions: for CC50: Homo sapiens, HSC-2, tumor cell line, 48 h, MTT; for times of potency compared to 5-FU, HSC-2: cytotoxicity relative to 5-FU
Procedure: as §1, §2

hCA II = hCA II (Homo sapiens, UniProt P00918); assay: Carbonic anhydrase enzyme assay (esterase activity), hCA II; type: biochemical; conditions: for Ki: Lineweaver-Burk plot; for IC50: esterase activity, p-nitrophenyl acetate
From the text: as §3, §4

Chain of hCA I (P00915 whole entry, canonical isoform): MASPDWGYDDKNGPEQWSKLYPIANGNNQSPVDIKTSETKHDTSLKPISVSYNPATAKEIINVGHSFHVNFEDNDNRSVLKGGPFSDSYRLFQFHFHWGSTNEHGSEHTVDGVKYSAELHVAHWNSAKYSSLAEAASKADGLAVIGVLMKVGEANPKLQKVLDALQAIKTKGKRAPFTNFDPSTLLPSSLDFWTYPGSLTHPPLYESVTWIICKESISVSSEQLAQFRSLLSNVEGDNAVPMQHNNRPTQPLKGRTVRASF

Row | Compound | melting point [°C] | Ki (hCA I) [µM] | IC50 (hCA I) [µM] | Ki (hCA II) [µM] | IC50 (hCA II) [µM] | CC50 at 48 h [1] [µM] | CC50 at 48 h [2] [µM] | CC50 [3] [µM] | CC50 [4] [µM] | CC50 [5] [µM] | times of potency compared to 5-FU, Ca9-22 [5] | CC50 [6] [µM] | CC50 at 48 h [7] [µM] | CC50 at 48 h [8] [µM] | CC50 [9] [µM] | times of potency compared to 5-FU, HSC-2 [9] | PSE2 times more potent than 5-FU [5]
1 | NS(=O)(=O)c1ccc(N2N=C(c3ccccc3)CC2c2ccc3c(c2)OCO3)cc1 (stereo not drawn) [4a, 4-[5-(1,3-Benzodioxol-5-yl)-3-phenyl-4,5-dihydro-1H-pyrazol-1 yl]benzenesulphonamide] | 196 to 198 | 59.8 ± 3 | 30.1 | 8.9 ± 2.3 | 10.7 | 56.3 | 37.6 | 26.1 | 20.8 | 17.1 | 1.3 | 22.5 | 52.4 | 63.2 | 26.1 | 10 | 
2 | COc1ccc(C2=NN(c3ccc(S(N)(=O)=O)cc3)C(c3ccc4c(c3)OCO4)C2)cc1 (stereo not drawn) [4b, 4-[5-(1,3-Benzodioxol-5-yl)-3-(4-methoxyphenyl)-4,5-dihydro-1H-pyrazol-1-yl]benzenesulphonamide] | 171 to 173 | 31.9 ± 1.9 | 11.3 | 11.5 ± 4.6 | 16.3 | 400 | 400 | 18.2 | 16.2 | 14 | 1.6 | 16.6 | 300 | 98.7 | 18 | 14.5 | 
3 | COc1cccc(C2=NN(c3ccc(S(N)(=O)=O)cc3)C(c3ccc4c(c3)OCO4)C2)c1 (stereo not drawn) [4c, 4-[5-(1,3-Benzodioxol-5-yl)-3-(3-methoxyphenyl)-4,5-dihydro-1H-pyrazol-1-yl]benzenesulphonamide] | 184 to 186 | 21.5 ± 1.5 | 6.6 | 6.9 ± 1.5 | 9.2 | 38.2 | 178 | 18 | 13.9 | 19.5 |  | 17.4 | 119 | 140 | 18.3 | 14.3 | 
4 | COc1ccccc1C1=NN(c2ccc(S(N)(=O)=O)cc2)C(c2ccc3c(c2)OCO3)C1 (stereo not drawn) [4d, 4-[5-(1,3-Benzodioxol-5-yl)-3-(2-methoxyphenyl)-4,5-dihydro-1H-pyrazol-1-yl]benzenesulphonamide] | 183 to 185 | 28.5 ± 1.6 | 12.8 | 8.9 ± 1.9 | 10.7 | 36.9 | 39.7 | 14.9 | 12.4 | 13.8 | 1.6 | 14.6 | 37.8 | 37 | 17.1 | 15.3 | 
5 | COc1cc(OC)c(C2=NN(c3ccc(S(N)(=O)=O)cc3)C(c3ccc4c(c3)OCO4)C2)cc1OC (stereo not drawn) [4h, 4-[5-(1,3-Benzodioxol-5-yl)-3-(2,4,5-trimethoxyphenyl)-4,5-dihydro-1H-pyrazol-1-yl]benzenesulphonamide] | 191 to 193 | 49.6 ± 1.9 | 13.8 | 9.3 ± 1.6 | 14.3 | 400 | 400 | 21.8 | 21.3 | 400 |  | 211 | 400 | 400 | 400 |  | 
6 | COc1cc(C2=NN(c3ccc(S(N)(=O)=O)cc3)C(c3ccc4c(c3)OCO4)C2)cc(OC)c1OC (stereo not drawn) [4i, 4-[5-(1,3-Benzodioxol-5-yl)-3-(3,4,5-trimethoxyphenyl)-4,5-dihydro-1H-pyrazol-1-yl]benzenesulphonamide] | 212 to 214 | 52.5 ± 1.8 | 29.7 | 24.1 ± 7.1 | 12.5 | 400 | 83.7 | 6.7 | 11.3 | 9.3 | 2.4 | 14.6 | 285 | 371 | 30.9 | 8.4 | 2.2
7 | O=c1[nH]cc(F)c(=O)[nH]1 [5-FU, 5-Fluorouracil, reference compound] |  |  |  |  |  | 1000 | 1000 | 12.5 | 7.8 | 22 |  | 75.8 | 986 | 958 | 261 |  | 

Second part, led by results:

Row | melting point [°C] | Ki (hCA I) [µM] | IC50 (hCA I) [µM] | Ki (hCA II) [µM] | IC50 (hCA II) [µM] | Compound | CC50 at 48 h [1] [µM] | CC50 at 48 h [2] [µM] | CC50 [3] [µM] | CC50 [4] [µM] | CC50 [5] [µM] | times of potency compared to 5-FU, Ca9-22 [5] | CC50 [6] [µM] | CC50 at 48 h [7] [µM] | CC50 at 48 h [8] [µM] | CC50 [9] [µM] | times of potency compared to 5-FU, HSC-2 [9] | PSE2 times more potent than 5-FU [5]
8 | 243 to 245 | 25.5 ± 1.6 | 10.2 | 9.3 ± 0.6 | 15.2 | COc1ccc(C2=NN(c3ccc(S(N)(=O)=O)cc3)C(c3ccc4c(c3)OCO4)C2)cc1OC (stereo not drawn) [4e, 4-[5-(1,3-Benzodioxol-5-yl)-3-(3,4-dimethoxyphenyl)-4,5-dihydro-1H-pyrazol-1-yl]benzenesulphonamide] | 400 | 400 | 400 | 61 |  |  | 227 | 400 | 400 | 400 |  | 
9 | 144 to 146 | 27.8 ± 10.1 | 14 | 12.3 ± 2.8 | 16.3 | COc1ccc(OC)c(C2=NN(c3ccc(S(N)(=O)=O)cc3)C(c3ccc4c(c3)OCO4)C2)c1 (stereo not drawn) [4f, 4-[5-(1,3-Benzodioxol-5-yl)-3-(2,5-dimethoxyphenyl)-4,5-dihydro-1H-pyrazol-1-yl]benzenesulphonamide] | 400 | 276 | 12 | 11.5 | 9.7 | 2.3 | 12.2 | 274 | 147 | 15.7 | 16.6 | 2.1
10 | 134 to 136 | 12.7 ± 1.7 | 6.7 | 7.8 ± 2.2 | 11.3 | COc1ccc(C2=NN(c3ccc(S(N)(=O)=O)cc3)C(c3ccc4c(c3)OCO4)C2)c(OC)c1 (stereo not drawn) [4g, 4-[5-(1,3-Benzodioxol-5-yl)-3-(2,4-dimethoxyphenyl)-4,5-dihydro-1H-pyrazol-1-yl]benzenesulphonamide] | 400 | 234 | 12.7 | 9.8 | 9.9 | 2.2 | 11.5 | 255 | 131 | 13.5 | 19.3 | 2.0
